Measurements from BindingDB's records for doi:10.1016/j.ejmech.2019.04.066 (Shanghai Ocean University, 2019).

Test: Inhibition of ICAM-1 in human A549 cells after 1 hr in presence of IL-1beta

- IC50: 5.9 µM
Structure (SMILES): C[C@@H]1C(=O)O[C@H]2[C@H]1CC[C@@]1(C)C[C@@H](Br)C(=O)[C@@H](C)[C@H]21
